Laboratory results from patent US20240425898A1, “BACTERIA CLASSIFICATION AND ANALYSIS” (SYSMEX ASTREGO AB, priority 2023, published 2024).

Test system: bacteria in the urine sample
Experiment: Gram classification by treatment impact in microfluidic device (FIGS. 10 to 13)
Assay type: cell-based, Escherichia coli
Conditions: LIN 4 μg/ml and VAN 32 μg/ml at T1=25 min; NaCl 340 mM at 10-22 min
Source text: In this embodiment, bacterial cells from a biological sample are exposed to four different treatments (Tr1 to Tr4). […] The combination of LIN/VAN in the first treatment Tr1 is generally effective against gram-positive bacteria but has no or little antibacterial activity against gram-negative bacteria. […] AMC used in the third treatment Tr3 has broad antibacterial activity against both gram-positive and gram-negative bacteria. It, though, generally has slower antibacterial activity against Staphylococcus as compared to against Enterococcus. FOS used in the fourth treatment Tr4 has a broad antibacterial activity against both gram-positive and gram-negative bacteria. It, though, generally has a slower antibacterial activity against Staphylococcus as compared to against Enterococcus. Bacterial cells from the biological sample are preferably exposed to respective treatment in parallel. In this example, a respective impact parameter is determined for each treatment after a respective treatment period (T1 to T5) and then compared to a respective cutoff or threshold value. The respective treatment periods T1 to T5 could be the same but are typically different and adapted to the particular antimicrobial agent or mixture or salt or salt mixture. […] A urine sample was loaded into the microfluidic device 5 and bacterial growth was monitored in the different sets 130 of cell channels. […]

`[Cl-].[Na+]` [NaCl, sodium chloride] was tested, and the “candidate gram classification indicated by treatment” value was “gram negative”.
